Measurements as given in BigSolDB 2.1.

For NCCCCCCN, the solubility (mole fraction) (in 1,4-dioxane, 283.15 K) was 0.135, the solubility (mole fraction) (in 1,4-dioxane, 288.15 K) was 0.194 and the solubility (mole fraction) (in 1,4-dioxane, 293.15 K) was 0.267. The solubility (mole fraction) (in 1,4-dioxane, 298.15 K) was 0.348, the solubility (mole fraction) (in 1,4-dioxane, 303.15 K) was 0.467 and the solubility (mole fraction) (in cyclohexane, 278.15 K) was 0.0071. The solubility (mole fraction) (in cyclohexane, 283.15 K) was 0.0092, the solubility (mole fraction) (in cyclohexane, 288.15 K) was 0.0126 and the solubility (mole fraction) (in cyclohexane, 293.15 K) was 0.0187. For the same compound, the solubility (mole fraction) (in cyclohexane, 298.15 K) was 0.0309, the solubility (mole fraction) (in cyclohexane, 303.15 K) was 0.053 and the solubility (mole fraction) (in isobutanol, 278.15 K) was 0.193. For the same compound, the solubility (mole fraction) (in isobutanol, 283.15 K) was 0.236, the solubility (mole fraction) (in isobutanol, 288.15 K) was 0.288 and the solubility (mole fraction) (in isobutanol, 293.15 K) was 0.351. The solubility (mole fraction) (in isobutanol, 298.15 K) was 0.427, the solubility (mole fraction) (in isobutanol, 303.15 K) was 0.521 and the solubility (mole fraction) (in n-butanol, 278.15 K) was 0.35. The solubility (mole fraction) (in n-butanol, 283.15 K) was 0.389, the solubility (mole fraction) (in n-butanol, 288.15 K) was 0.448 and the solubility (mole fraction) (in n-butanol, 293.15 K) was 0.508. For the same compound, the solubility (mole fraction) (in n-butanol, 298.15 K) was 0.584, the solubility (mole fraction) (in n-butanol, 303.15 K) was 0.652 and the solubility (mole fraction) (in n-hexane, 278.15 K) was 0.0103. It also gave a solubility (mole fraction) (in n-hexane, 283.15 K) of 0.0149, a solubility (mole fraction) (in n-hexane, 288.15 K) of 0.018 and a solubility (mole fraction) (in n-hexane, 293.15 K) of 0.0268. The solubility (mole fraction) (in n-hexane, 298.15 K) was 0.0449, the solubility (mole fraction) (in n-hexane, 303.15 K) was 0.0729 and the solubility (mole fraction) (in n-propanol, 278.15 K) was 0.315. It also gave a solubility (mole fraction) (in n-propanol, 283.15 K) of 0.354, a solubility (mole fraction) (in n-propanol, 288.15 K) of 0.391 and a solubility (mole fraction) (in n-propanol, 293.15 K) of 0.431. For the same compound, the solubility (mole fraction) (in n-propanol, 298.15 K) was 0.485, the solubility (mole fraction) (in n-propanol, 303.15 K) was 0.552 and the solubility (mole fraction) (in toluene, 278.15 K) was 0.132. It also gave a solubility (mole fraction) (in toluene, 283.15 K) of 0.161, a solubility (mole fraction) (in toluene, 288.15 K) of 0.209 and a solubility (mole fraction) (in toluene, 293.15 K) of 0.259. The solubility (mole fraction) (in toluene, 298.15 K) was 0.334 and the solubility (mole fraction) (in toluene, 303.15 K) was 0.434.
